Measurements: US7786042B2, “Fluridone as an anti-inflammatory agent” (Universita' Degli Studi Di Genova, priority 2005, dated 2010)
Entries after “also recorded” stand apart in the source; their conditions may differ.

Assays:
human granulocytes [1] = experiment: GDP-ribosyl cyclase activity in granulocytes; format: cell-based; conditions: ABA 0.2 to 200 μM; detectable after 5 min
Description: (§1) Panel A. GDP-ribosyl cyclase activity has been measured in granulocytes in the presence of increasing ABA concentrations, added together with the cyclase substrate NGD^+. The results are expressed as cyclase activity relative to control cells, incubated in the absence of ABA (mean ±SD from 5 determinations). Panel B. The intracellular concentration of cADPR was measured by enzymatic cycling assay (Materials and Methods) on granulcoytes incubated with 20 μM ABA for the periods of time indicated. The results are expressed as [cADPR]i relative to control cells, incubated without ABA (n=2).
Granulocytes were resuspended in HBSS (60×10^6/ml) and cyclase activity was measured by adding the substrate NGD^+ (a NAD^+ analogue, which product cGDPR is fluorescent) at the concentration of 0.2 mM together with increasing concentrations of ABA. At various times (0, 5, 15, 60 and 120 min) 100 μl-aliquots were withdrawn and centrifuged (5,000×g for 15 s) and supernatants were deproteinized with 2.5% (v/v) trichloroacetic acid. The cGDPR content was estimated by HPLC analysis, as described in (Guida, FEBS 1995).

human granulocytes [2] = experiment: Intracellular cADPR content in granulocytes (enzymatic cycling assay); format: cell-based; conditions: ABA 20 μM
Description: as §1
The assays to determine the intracellular cADPR concentration ([cADPR]i) in granulocytes are known to the expert in the field. Granulocytes (40×10^6/ml in RPMI 1640) were incubated in the presence of 20 μM ABA and at various times 500 μl-aliquots were withdrawn and centrifuged (5,000×g for 15 s) to recover the cell pellets. Determination of the [cADPR]i was performed on perchloric acid cell extracts by an enzymatic cycling assay, as described in (Graeff, Biochem. J. 2002).

[3] = tested on: murine microglia cell line N9; experiment: Chemokinesis of murine microglia N9; format: cell-based; conditions: ABA 0.2-20 μM
Description: Assays were performed using 96-well ChemoTx system microplates with a 3-μm pore size polycarbonate filter (NeuroProbe Inc., Gaithersburg, USA). Cells (granulocytes or murine microglia) were resuspended at 10^7/ml in HBSS, PBS and 5% albumin, 39:16:1 (chemotaxis buffer, CB). In order to evaluate the chemoattractant effect of ABA, hormone concentrations ranging from 50 nM to 20 μM were added in CB in the bottom wells and 25 μl cell suspensions were placed on top of the filter. To evaluate a possible stimulatory effect of ABA on spontaneous cell movements (chemokinesis), cells were pre-incubated with or without 20 μM ABA, then washed and placed on top of the filter, in contact with CB. Plates were incubated at 37° C. for 60 min and transmigrated cells were recovered and quantified by fluorimetric assay with Cytox Green. The number of transmigrated cells was calculated by comparison of the measured fluorescence with that of a standard curve, obtained by directly placing a serial dilution of cells in the bottom wells. The results of the chemotaxis experiments are expressed as “chemotaxis index” (CI): CI=number of cells migrated towards chemoattractant/number of cells migrated towards CB
The results of the chemokinesis experiments are expressed as number of ABA pre-treated cells migrated through the filter compared to control cells (not treated with ABA).

[4] = tested on: murine microglial cell line N9; experiment: ABA content in murine microglia N9 by HPLC-MS; format: cell-based; conditions: N9 cells; fluridone 50 μM together with LPS
Description: Cells from the murine microglial cell line N9 were pre-incubated with or without 50 μM fluridone for 2 hours and then stimulated with 100 ng/ml lipopolysaccharide (LPS) for 24 hours. The ABA content was measured by HPLC-MS (see Materials and Methods) and was compared with that of untreated cells (control). The results are the mean from 2 experiments.
N9 cells were seeded (25×10^6/flask) in IMDM medium containing fetal calf serum, incubated for 3 h at 37° C. with or without 50 μM fluridone and then incubated for 3 days in the absence or in the presence of 200 ng/ml lipopolysaccharide (LPS). Cells were then recovered, washed in phosphate-buffered saline isotonic solution at pH 7.4 (PBS), resuspended in 0.5 ml water and sonicated. […] A small aliquot of the extract was used to determine radioactivity (with a β-counter), allowing the calculation of the percentage of ABA recovery after-extraction. The rest of the extract was analyzed on an Agilent 1100 capillary chromatography system, with a diode array detector, equipped with a Waters Atlantis™ dC18 150×1 mm column, particle size 3 μm, coupled to an Agilent 1100 series LC/MSD Trap mass spectrometer, equipped with an orthogonal geometry electrospray source and ion trap analyser. […]

[5] = tested on: human granulocytes and lymphocytes; experiment: ABA content in stimulated human granulocytes and lymphocytes (immunoassay for ABA); format: cell-based; conditions: fluridone 10-50 μM
Description: The increase of the intracellular ABA concentration induced by f-MLP in granulocytes and by PMA in lymphocytes is inhibited by the addition of fluridone at micromolar concentrations (ranging between 10 and 50 μM) during cell incubation with the pro-inflammatory stimuli.

whole blood cells = experiment: LPS-induced histamine release from blood cells; format: cell-based, human; conditions: pre-incubation with 50 μM fluridone
Description: Whole blood was pre-incubated for 2 hours at 25° C. in the absence (control) or in the presence of 50 μM fluridone. Then, 100 ng/ml of lipopolysaccharide (LPS) was added to the blood at 37° C. for the time indicated. The histamine concentration in plasma was measured immunoenzymatically with a commercially available kit (IBL-Hamburg, Germany). The results are the mean ±SD from 3 experiments.

[6] = tested on: human lymphocytes and monocytes; experiment: Cell viability by Trypan blue exclusion, human cells; format: cell-based; conditions: fluridone 50 μM
Description: Inhibition of proliferation is not due to fluridone toxicity since the percentage of viable cells (excluding the dye Trypan blue) was similar in the cultures incubated with fluridone compared to controls.
(§2) A similar effect (90% inhibition) is produced by fluridone also on the LPS-induced TNF-α production in both cell types (FIGS. 7 A and B). In all these cases, no toxicity of fluridone on the cells was observed, as evaluated by the ability of excluding the dye Trypan blue.

[7] = tested on: murine macrophages RAW 264.7; experiment: Cell viability by Trypan blue exclusion, RAW 264.7; format: cell-based; conditions: RAW 264.7, fluridone 50 μM
Excerpt: as §2

[8] = tested on: laboratory animals (mice, rats, dogs, fish and birds); conditions: even at high concentrations; cited from earlier work

CC1=CC(=O)CC(C)(C)[C@@]1(O)/C=C/C(C)=C\C(=O)O (racemic) [ABA, (±)-cis, trans ABA]
GDP-ribosyl cyclase activity (human granulocytes [1]): dose-dependent stimulation | intracellular cADPR concentration ([cADPR]i) (human granulocytes [2]): increase | chemokinesis [3]: increase; also recorded: ↑chemokinesis

Cn1cc(-c2ccccc2)c(=O)c(-c2cccc(C(F)(F)F)c2)c1 [Fluridone, 1-methyl-3-phenyl-5-(α,α,α-trifluoro-m-tolyl)-4-pyridone]
reduction of the LPS-induced increase of intracellular ABA content [4]: 60% | inhibition of the increase of intracellular ABA concentration ([5]; granulocytes, f-MLP-induced): 40% | inhibition of the increase of intracellular ABA concentration ([5]; lymphocytes, PMA-induced): 50% | histamine release by LPS-stimulated (unfractionated) blood cells (whole blood cells): completely inhibits | toxicity on the cells (Trypan blue exclusion) ([6]; human monocytes): no toxicity | percentage of viable cells (excluding Trypan blue) compared to controls ([6]; lymphocyte cultures): similar | toxicity on the cells (Trypan blue exclusion) [7]: no toxicity | toxic, mutagenic, teratogenic or cancerogenic effects [8]: absence of toxic, mutagenic, teratogenic or cancerogenic effects
